Laboratory results taken from patent US9801856B2, “Composition of a 5-HT2A serotonin receptor modulator useful for the treatment of disorders related thereto” (Arena Pharmaceuticals, Inc., priority 2008, dated 2017).
“Also recorded” adds a separate entry of the source.

Tests used:
[1] = Aqueous solubility of APD125; type: physicochemical
[2] = Stability of APD125 in solution; type: physicochemical; settings: in solution at 25° C.
[3] = biological target: T1, 5-HT2A serotonin receptor (Homo sapiens, UniProt P28223); experiment: 5-HT2A serotonin receptor inverse agonist activity; type: biochemical
T1 sequence (P28223 whole entry): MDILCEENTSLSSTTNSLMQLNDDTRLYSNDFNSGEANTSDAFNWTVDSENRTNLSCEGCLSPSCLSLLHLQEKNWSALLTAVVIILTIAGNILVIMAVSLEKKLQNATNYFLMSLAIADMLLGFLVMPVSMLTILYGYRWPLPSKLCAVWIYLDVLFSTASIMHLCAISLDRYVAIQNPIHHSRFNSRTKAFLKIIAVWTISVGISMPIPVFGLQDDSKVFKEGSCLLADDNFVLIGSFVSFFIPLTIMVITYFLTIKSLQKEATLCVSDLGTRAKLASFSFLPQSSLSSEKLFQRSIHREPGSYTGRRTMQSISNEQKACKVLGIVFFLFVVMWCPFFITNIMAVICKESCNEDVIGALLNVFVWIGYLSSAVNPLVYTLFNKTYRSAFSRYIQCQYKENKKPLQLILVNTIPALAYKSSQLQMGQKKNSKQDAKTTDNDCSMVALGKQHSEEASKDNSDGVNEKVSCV

[4] = biological target: T1, 5-HT2A serotonin receptor; experiment: Phase 1 trials: waking EEG; type: in vivo, humans
[5] = biological target: T1, 5-HT2A serotonin receptor; experiment: Afternoon nap model of insomnia in normal volunteers; type: in vivo, humans
[6] = biological target: T1, 5-HT2A serotonin receptor; experiment: Phase 2 trial: sleep maintenance versus placebo; type: in vivo, humans
[7] = Effect of milling and compression upon APD125 Form I (PXRD); type: physicochemical
Description: Micronized APD125 Form I, was ground using a mortar and pestle, with samples withdrawn at 1-min, 5-min and 10-min time points for PXRD analyses to evaluate the impact of grinding upon the solid-state form of APD125 Form I. PXRD patterns were obtained pre- and post-milling. Additionally, micronized APD125 Form I, was compressed at 2 kp, 5 kp and 10 kp for 1 min per sample using a Carver press. The samples were then removed from the Carver press and lightly broken up using a mortar and pestle, prior to PXRD analysis to evaluate the impact of compression upon the solid-state form of APD125 Form I. PXRD patterns were obtained pre- and post-compression.
(§1) PXRD measurements were obtained using a Philips (PANalytical) X'Pert PRO theta/theta diffractometer (EQ 0233) equipped with an X'Celerator RTMS detector and utilizing copper Kα radiation, operating at 45 kV and 40 mA. The instrument radius was 239.5 mm, the mask filter was 20 mm, the soller slit was 0.04 radians, and a nickel filter and sample spinning were used during data acquisition. The application and instrument control software used were X'Pert Data Collector®, version 2.0c and XPERT-PRO®, version 1.6, respectively. The samples were scanned from 5° to 40° 2θ in continuous mode, using a step size of 0.0167° 2θ.

[8] = Methyl cellulose optimization: Form I to Form II conversion in water pastes (PXRD); type: physicochemical
Description: In a small scintillation vial, 152.13 mg of micronized APD125 Form I, was spiked with sufficient deionized water to make a paste; the weight of the water added, 844.60 mg was recorded, and the resulting mixture was stirred using a spatula to obtain a paste. The resulting sample, post-collection of an initial PXRD pattern, was capped, wrapped in tinfoil and stored at 40° C. until the next day, when a second PXRD pattern was obtained.
Using another small scintillation vial, 2.1183 g of micronized APD125 Form I, was mixed with 3.3619 g of a 0.5% w/v methyl cellulose to obtain a paste, which was immediately sampled for PXRD analysis to verify starting APD125 solid-state form, post-methyl cellulose addition. The remaining sample in the scintillation vial was split into two portions, placed in capped, parafilm-wrapped scintillation vials, which were then wrapped in tinfoil and stored at 40° C. and room temperature, respectively. […]
APD125 micronized Form I/PVP (1:8) blend, weighing 3.0081 g and containing 0.5% w/w methyl cellulose, was mixed with 3.71277 g of water to form a paste. After sampling the paste for an initial PXRD pattern, the remaining paste was split into two portions, placed in capped, parafilm-wrapped scintillation vials, which were then wrapped in tinfoil and stored at 40° C. and room temperature, respectively. PXRD patterns were collected at initial (t=0), 1-day, 7-day and 21-day time points.
For each blend, materials were dispensed (minus magnesium stearate) into a glass vial and blended for about 5 minutes. Magnesium stearate was added and the mixture was blended an additional 2 minutes. The final blend was compacted into standard round concave tablets ( 5/16″ diameter) with a total tablet weight of 200 mg and hardness of 10 kp using a Carver press. For each batch of tablets, several were crushed using a mortar and pestle to obtain a fine powder, from which a small sample was taken for PXRD analysis to confirm the initial APD125 polymorphic form. The remaining powder was weighed into a Qorpak® bottle, and ca. 50% w/w deionized water was added. The resulting mixture was stirred using a micro-spatula to wet the powder and form a paste. A Teflon® lid was screwed on tightly, and the prepared samples were stored in a 40° C. oven.
as §1, with “respectively. The API-based paste samples were” for “respectively. The samples were”, “of 0.0167° 2θ and a counting time of 40.005 seconds. The tablet granulation samples were scanned from 2° to 15° 2θ in continuous mode, using a step size of 0.0167° 2θ and a counting time of 1063.625 s.” for “of 0.0167° 2θ.”

[9] = system: 5-HT2 receptor; settings: glaucoma patients; cited from earlier work
[10] = biological target: T2, 5-HT2A (Homo sapiens, UniProt P28223); parameters: host or cells: patients, in vivo; settings: 24 months of treatment; cited from earlier work
T2 sequence (P28223 whole entry): as above

[11] = biological target: T3, 5-HT2A (Rattus norvegicus, UniProt P14842); parameters: host or cells: diabetic rats, in vivo; settings: rats, cited from earlier work
T3 sequence (P14842 whole entry): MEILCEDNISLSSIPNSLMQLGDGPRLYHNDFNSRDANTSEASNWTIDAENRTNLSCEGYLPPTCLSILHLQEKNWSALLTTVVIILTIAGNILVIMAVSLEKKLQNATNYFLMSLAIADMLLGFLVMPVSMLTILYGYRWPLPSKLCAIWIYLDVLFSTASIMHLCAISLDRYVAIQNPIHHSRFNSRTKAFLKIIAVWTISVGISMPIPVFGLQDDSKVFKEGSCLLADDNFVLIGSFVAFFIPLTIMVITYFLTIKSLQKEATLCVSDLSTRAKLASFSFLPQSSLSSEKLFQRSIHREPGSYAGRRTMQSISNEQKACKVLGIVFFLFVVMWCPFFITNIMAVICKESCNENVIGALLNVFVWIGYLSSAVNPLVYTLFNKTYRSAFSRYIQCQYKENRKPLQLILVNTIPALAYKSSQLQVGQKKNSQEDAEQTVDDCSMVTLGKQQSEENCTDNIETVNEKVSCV

[12] = biological target: T2, 5-HT2A; parameters: host or cells: human patients, in vivo; settings: humans, lumbar disc herniation; cited from earlier work
[13] = biological target: T1, 5-HT2A serotonin receptor; settings: cited from earlier work
[14] = system: JC virus; settings: cited from earlier work
[15] = biological target: T3, 5-HT2A; settings: in vivo; cited from earlier work
[16] = biological target: T3, 5-HT2A; parameters: host or cells: diabetic rats, in vivo; settings: spontaneously hypertensive rats; cited from earlier work

Compound `COc1ccc(NC(=O)Nc2ccc(F)cc2F)cc1-c1c(Br)cnn1C` [APD125, 1-[3-(4-bromo-2-methyl-2H-pyrazol-3-yl)-4-methoxy-phenyl]-3-(2,4-difluoro-phenyl)-urea] has a solubility ([1]; aqueous buffer, phosphate buffer (about pH 7)) of at most 10 µg/mL, a solubility ([1]; deionized water, water) of at most 10 µg/mL and a solubility ([1]; saline (about 0.9% NaCl solution), saline or isotonic) of at most 10 µg/mL. For the same compound, the solubility ([1]; simulated gastric fluid, 0.01 N HCl (about pH 2)) was at most 10 µg/mL, the stability in solution [2] was “somewhat labile” and the “activity at the 5-HT2A serotonin receptor” value [3] was “potent and selective 5-HT2A serotonin receptor inverse agonist”. For the same compound, the “dose of maximal effects on waking EEG” value [4] was 40 to 80 mg, the “effects on waking EEG” value [4] was “vigilance-lowering effects” and the “time of peak effects after dosing” value ([4]; waking EEG) was 2 to 4 h. For the same compound, the REM sleep ([5]; human, in vivo) was “at the expense of REM sleep”, the “microarousals, number of sleep stage shifts and number of awakenings after sleep onset” value ([5]; human, in vivo) was “decreased” and the sleep onset latency ([5]; human, in vivo) was “not decreased”. For the same compound, the “slow wave sleep and associated parameters” value ([5]; primarily during the early part of sleep) was “increased slow wave sleep and associated parameters in a dose-dependent manner”, the “measurements of sleep maintenance” value ([6]; compared to placebo) was “statistically significant improvements” and the “next day cognitive effects” value ([6]; in vivo) was “without any limiting next day cognitive effects”.
In the case of `COc1ccc(NC(=O)Nc2ccc(F)cc2F)cc1-c1c(Br)cnn1C` [APD125 Form I, 1-[3-(4-bromo-2-methyl-2H-pyrazol-3-yl)-4-methoxy-phenyl]-3-(2,4-difluoro-phenyl)-urea], the “PXRD pattern after compression” value ([7]; compressed at 2 kp, 5 kp and 10 kp) is reported as “all substantially comprise Form I; also recorded: consistent with APD125 Form I”, the “PXRD pattern after grinding” value ([7]; mortar and pestle for 1 minute, 5 minutes and 10 minutes, listed as micronized APD125 Form I) is reported as “all substantially comprise Form I; also recorded: No significant changes in the PXRD patterns were observed” and the “polymorphic form by PXRD” value ([8]; aqueous 0.5% w/w methyl cellulose at 40° C. after 10 days (FIG. 8, text)) is reported as “no evidence of conversion to Form II”. The “polymorphic form by PXRD” value ([8]; aqueous 0.5% w/w methyl cellulose, room temperature and 40° C. after 16 days (FIG. 8 legend)) was “substantially converted to Form II”, the “polymorphic form by PXRD” value ([8]; paste in water alone at 40° C.) was “converted to Form II within 24 hours” and the “polymorphic form by PXRD” value ([8]; paste in water alone at room temperature and 40° C. after 24 h (FIG. 9 legend)) was “substantially converted to Form II”. The “polymorphic form by PXRD” value ([8]; suspended in aqueous 0.5% w/w methyl cellulose, 21 days at room temperature) was “did not convert to Form II”.
For `COc1cccc(CCc2ccccc2OCC(CN(C)C)OC(=O)CCC(=O)O)c1` (stereo not shown) [sarpogrelate], the IOP [9] is listed as “significantly lower IOP”, the “urinary albumin excretion level” value [10] is listed as “significantly reduced” and the thermal induced pain ([11]; intraperitoneal administration) is listed as “significant analgesic effect”. The inflammatory pain ([11]; intrathecal or intraperitoneal administration) was “significant analgesic effect” and the “lower back pain, leg pain and numbness associated with sciatica” value [12] was “effective treatment”.
In the case of `Cc1nc2sccn2c(=O)c1CCN1CCC(=C(c2ccc(F)cc2)c2ccc(F)cc2)CC1` [ritanserin], the “activity at 5-HT2A” value [13] is listed as “inverse agonist activity” and the “JC virus infection of human glial cells” value [14] is listed as “inhibited”.
In the case of `O=C(c1ccc(F)cc1)C1CCN(CCn2c(=O)[nH]c3ccccc3c2=O)CC1` [ketanserin], the “activity at 5-HT2A” value [13] is listed as “inverse agonist activity”, the IOP [9] is listed as “significantly lower IOP” and the “JC virus infection of human glial cells” value [14] is listed as “inhibited”. The protection during heatstroke [15] was “protect against circulatory shocks, intracranial hypertension and cerebral ischemia during heatstroke” and the blood pressure [16] was “stabilize blood pressure”.
